Test results: article PMC4783179 (The Journal of comparative neurology, 2015)
Values joined by “and” are separate entries in the source; they are usually repeats but may differ in a detail not shown here. Equal values may be shown once. Read-outs that look alike come from different tables or passages of the source.

Experiments:
[1] = system: 5-HT1A receptors; settings: ref Wooten et al., cited from earlier work
[2] = system: human; settings: ref PDSP data base; cited from earlier work
[3] = system: human P-glycoprotein; settings: cited from earlier work
[4] = rat, in vivo; cited from earlier work
[5] = system: serotonin release in the rat frontal cortex; settings: ref Mukaida et al., 2007; cited from earlier work
[6] = system: hippocampal extracellular serotonin levels; settings: mice; ref Whittington and Virag, 2006; cited from earlier work
[7] = system: rabbits; experiment: 14-Day Toxicity Study of FCWAY, intravenous; format: in vivo; settings: from rabbit 0.3 mg/kg/day
[8] = system: rabbits; settings: intravenous, 14 consecutive days, ref PDSP data base; cited from earlier work
[9] = humans, baseline and with disulfiram; ref Ryu et al., 2007; cited from earlier work
[10] = humans, with disulfiram; ref Ryu et al., 2007; cited from earlier work

SMILES: COc1ccccc1N1CCN(CCN(C(=O)C2CCC(CF)CC2)c2ccccn2)CC1 (single isomer, unassigned) [cis-isomer of Mefway]
- Binding compared to trans-isomer ([1]; 2011a): lower binding

SMILES: COc1ccccc1N1CCN(CCN(C(=O)C2CCCCC2)c2ccccn2)CC1 [WAY-100635, N-{2-[4-(2-methoxyphenyl)piperazin-1-yl]ethyl}-N-(pyridine-2-yl)cyclohexanecarboxamide]
- Daily dose safely used in human [2]: up to 700 μg/kg
- Substrate of human P-glycoprotein ([3]; ref Tournier et al., 2011): not being suitable substrates

SMILES: O=C(O)[C@H]1CC[C@H](C[18F])CC1 [^18F-FMCHA]
- Brain penetration and retention [4]: poor penetration and retention

SMILES: FC(F)OC(Cl)C(F)(F)F (stereo not drawn) [Isoflurane]
- Serotonin release, frontal cortex [5]: < 40 % of awake state
- Hippocampal extracellular serotonin levels [6]: < 40 % of baseline

SMILES: COc1ccccc1N1CCN(CCN(C(=O)C2CCC(F)CC2)c2ccccn2)CC1 (stereo not drawn) [FCWAY]
- Human equivalent dose (HED) of the no-effect level [7]: 0.097 mg/kg
- No-effect level [8]: 0.3 mg/kg body weight/day

SMILES: COc1ccccc1N1CCN(CCN(C(=O)c2ccc(F)cc2)c2ccccn2)CC1 [MPPF]
- Substrate of human P-glycoprotein [3]: not being suitable substrates

SMILES: COc1ccccc1N1CCN(CCN(C(=O)C2CCCC(CF)C2)c2ccccn2)CC1 (stereo not drawn) [3-Mefway analog]
- In vivo binding properties compared to 4-Mefway [1]; 2014: lower in vivo binding properties

SMILES: COc1ccccc1N1CCN(CCN(C(=O)C2CCC([18F])CC2)c2ccccn2)CC1 (stereo not drawn) [^18F-FCWAY]
- Plasma free fraction [9]: 13% and ~ 13%
- Decrease of plasma clearance compared to baseline [10]: 47%
